Reference: patent publication US12102618B2, “Use of riluzole prodrugs to treat ataxias” (Biohaven Therapeutics Ltd., priority 2017, dated 2024)

How the values were obtained:
Type in all cases: in vivo, human
[1] = test system: ataxia symptoms in subjects with spinocerebellar ataxia (SCA); test: Phase IIb/III randomized, double-blind, placebo-controlled trial of BHV-4157 in SCA (BHV4157-201), 8-week randomization phase: SARA; details: lighter median
Procedure: One measure for assessment of the methods of the present invention is by using the Scale for the Assessment and Rating of Ataxia (“SARA”).
The SARA was developed as a clinician-administered instrument to measure severity of symptoms in patients with SCA. While there are multiple scales available, the SARA has been tested in many patients with SCA.
The SARA scores range from 0 (no ataxia) to 40 (severe). The SARA takes approximately 15 minutes to administer. Assessed items include: • Gait (rated 0 to 8) • Stance (0 to 6) • Sitting (0 to 4) • Speech disturbance (0 to 6) • Finger chase (0 to 4) • Nose-finger test (0 to 4) • Fast alternating hand movements (0 to 4) • Heel-shin slide (0 to 4)
Once each of the 8 categories has been assessed, the total score is calculated to determine the severity of ataxia. For motor activities of the four extremities (items 5-8), assessments are performed bilaterally and the mean values are used to obtain the total score.
The purpose of this study is to compare the efficacy of BHV-4157 versus placebo on ataxia symptoms in subjects with spinocerebellar ataxia (SCA).
(§1) Study Type: Interventional Study Design: Allocation: Randomized • Intervention Model: Parallel Assignment • Masking: Quadruple (Participant, Care Provider, Investigator, Outcomes Assessor) • Primary Purpose: Treatment • Official Title: A Phase IIb/III, Randomized, Double-blind, Placebo-controlled Trial of BHV-4157 in Adult Subjects With Spinocerebellar Ataxia Primary Outcome Measures: • To measure the change in total score on the Scale for Assessment and Rating of Ataxia (SARA) [Time Frame: The change in total score from baseline to week 8.] Secondary Outcome Measures: • To assess the safety and tolerability of BHV-4157 in subjects with SCA by measuring the frequency and severity of adverse events and discontinuations of adverse events. [Time Frame: Baseline to week 8.] Measured by the frequency and severity of adverse events and discontinuations of adverse events. • To compare efficacy of BHV-4157 with placebo on patient impression of benefit via use of the PGI-C [Time Frame: Baseline to Week 8] Change in PGI-C score
(§2) The study is a Phase IIb/III, multicenter, randomized, double-blind, 2-arm placebo-controlled parallel-group study designed to assess safety, tolerability, and efficacy signals in a population of patients with Spinocerebellar Ataxia (SCA). Subjects will be randomized to receive placebo (QD) or BHV-4157 (140 mg QD), stratified by diagnosis (genotype) and baseline severity (Gait Item of the SARA of ≤4 and >4). Subjects with SCA3 genotype will be limited to comprise up to approximately 10% of the total population so that this most common type of SCA is not over-represented.
Dosing will continue for 8 weeks. Subjects will return to the clinic two weeks after discontinuing study medication for a follow-up safety visit. In addition, subjects completing the Randomization Phase will be offered 48 weeks of open-label treatment as long as the PI believes open-label treatment offers an acceptable risk-benefit profile. Subjects who agree to enter the Extension Phase will not be required to wash-out of drug or complete the follow-up safety visit, but instead should continue dosing as specified in the extension phase. Subjects entering the Extension Phase would have their first Extension Visit four weeks after the Week 8 Randomization Phase visit. If there is a delay of two weeks or more in dosing between the Randomization Phase and the Extension Phase, subjects will be required to complete an Extension Baseline Visit. Thereafter, subjects will undergo visits every fourth week through Week 12 of this phase. Then subjects will undergo visits every 12 weeks up to Week 48 of this phase.

[2] = test system: subjects with spinocerebellar ataxia (SCA); test: Same trial: Clinical Global Impression-Global Improvement (CGI-I)
Procedure: Clinical Global Impression-Global Improvement (CGI-I)
as §2

[3] = test system: subjects with spinocerebellar ataxia (SCA); test: Same trial: Patient Global Impression of Change (PGI-C)
Excerpt: This is a patient self-reported global index scale that may be used to rate the response of a condition to a therapy.
as §1, §2

[4] = test system: patients with Spinocerebellar Ataxia (SCA); test: BHV4157-201 open-label extension phase, interim analysis: modified SARA (axial items)
Excerpt: This example describes a study entitled: Interim Extension Phase Analyses of Study BHV4157-201: Phase IIb/III, Randomized, Double-blind, Placebo-controlled Trial of Troriluzole (BHV-4157) in Adult Subjects with Spinocerebellar Ataxia followed by 96-Week Open-Label Extension Phase.
To date, all subjects have had the chance to complete the Week 24 visit from the long term, open-label extension phase of the trial.
BHV4157-201 is an on-going Phase IIb/III, multicenter, randomized, double-blind, 2-arm placebo-controlled parallel-group study designed to assess safety, tolerability, and efficacy in a population of patients with Spinocerebellar Ataxia (SCA). The study is comprised of two periods: an 8-week randomization period, followed by a 96-week open-label extension period. Regarding key entry criteria, subjects were male and female outpatients between the ages of 18-75 years, inclusive, with a known or suspected diagnosis of the following hereditary ataxias: SCA1, SCA2, SCA3, SCA6, SCA7, SCA8 and SCA10. All subjects completed genetic testing to confirm the diagnosis of hereditary ataxias. The primary objective of the study is to compare the efficacy of troriluzole versus placebo on ataxia symptoms in patients with SCA as measured by the total score on the Scale for the Assessment and Rating of Ataxia (SARA). Secondary objectives include assessments of functional disability, non-ataxia symptoms associated with SCA, global functioning, performance-based measures of ataxia, and neuropsychiatric and cognitive functioning.
During the 8-week Randomization Phase of the study, which has been completed, 141 subjects were randomized, in a 1:1 ratio, to receive either BHV-4157 (140 mg daily) or Placebo. Subjects completing the Randomization Phase were offered approximately 96 weeks of open-label treatment, provided the investigator believed open-label treatment offered an acceptable risk-benefit profile.

[5] = test system: subjects with spinocerebellar ataxia (SCA); test: Further analysis of Example 1 study: Modified SARA, 8 week change from baseline; details: for change in SARA score (difference BHV-4157 vs placebo): enriched genotypes
Excerpt: This example describes a further analysis of the study of Example 1.

[6] = Tolerability in BHV4157-201 trial; details: patients with SCA
Excerpt: as §1, with “Secondary Outcome Measures: • To assess the safety and tolerability of BHV-4157 in subjects with SCA by measuring the frequency and severity of adverse events and discontinuations of adverse events. [Time Frame: Baseline to week 8.]” left out, “Change in PGI-C score” left out
BHV4157-201 is an on-going Phase IIb/III, multicenter, randomized, double-blind, 2-arm placebo-controlled parallel-group study designed to assess safety, tolerability, and efficacy in a population of patients with Spinocerebellar Ataxia (SCA). […] The primary objective of the study is to compare the efficacy of troriluzole versus placebo on ataxia symptoms in patients with SCA as measured by the total score on the Scale for the Assessment and Rating of Ataxia (SARA). […]

## CN(CC(=O)Nc1nc2ccc(OC(F)(F)F)cc2s1)C(=O)CNC(=O)CN [BHV-4157, troriluzole]
[1]; printed on line EXP Sites
  Responder Analysis, ≥3 points in Stable Subjects (n = 36): 39%
[1]; printed on line Stable Subgroup
  Responder Analysis, ≥3 points at Experienced sites (n = 36): 26%
[2]; Lighter at EXP sites
  CGI Much Improved: 14%
[2]; Lighter at EXP sites, n = 15
  CGI Any Improvement: 60% (n = 15)
[2]; Lighter sample
  CGI Much Improved: 27%
[2]; Lighter sample, n = 22
  CGI Any Improvement: 64% (n = 22)
[3]; Lighter at EXP sites
  PGI Better and Definite . . .: 19%
[3]; Lighter at EXP sites, n = 16
  PGI Any Improvement: 45% (n = 16)
[3]; Lighter sample
  PGI “Better and Definite Improvement that has made a real & worthwhile difference”: 17%
[3]; Lighter sample, n = 23
  PGI Any Improvement: 34% (n = 23)
[4]; All Patients, 8 weeks
  Mod SARA change (SD) from Randomization Baseline: −0.4 (1.50)
[4]; All Patients, 36 weeks
  Mod SARA change (SD) from Randomization Baseline: −0.1 (1.30)
[4]; Female Subgroup, 8 weeks
  Mod SARA change (SD) from Randomization Baseline: −0.3 (1.48)
[4]; Female Subgroup, 24 weeks
  Mod SARA change (SD) from Randomization Baseline: −0.4 (1.32)
[4]; Female Subgroup, 36 weeks
  Mod SARA change (SD) from Randomization Baseline: −0.1 (1.41)
[4]; Female Subgroup, 48 weeks
  Mod SARA change (SD) from Randomization Baseline: −0.1 (1.50)
[4]; Low Weight Subgroup, 8 weeks
  Mod SARA change (SD) from Randomization Baseline: −0.6 (1.56)
[4]; Low Weight Subgroup, 24 weeks
  Mod SARA change (SD) from Randomization Baseline: −0.5 (1.44)
[4]; Low Weight Subgroup, 36 weeks
  Mod SARA change (SD) from Randomization Baseline: −0.3 (1.34)
[4]; Low Weight Subgroup, 48 weeks
  Mod SARA change (SD) from Randomization Baseline: −0.2 (1.41)
[4]; Non-SCA1 & SCA2, 8 weeks
  Mod SARA change (SD) from Randomization Baseline: −0.3 (1.58)
[4]; Non-SCA1 & SCA2, 24 weeks
  Mod SARA change (SD) from Randomization Baseline: −0.3 (1.24)
[4]; Non-SCA1 & SCA2, 36 weeks
  Mod SARA change (SD) from Randomization Baseline: −0.1 (1.44)
[4]; Non-SCA1 & SCA2, 48 weeks
  Mod SARA change (SD) from Randomization Baseline: −0.2 (1.44)
[4]; SCA1 & SCA2, 8 weeks
  Mod SARA change (SD) from Randomization Baseline: −0.5 (1.47)
[4]; SCA1 & SCA2, 24 weeks
  Mod SARA change (SD) from Randomization Baseline: −0.4 (1.45)
[4]; SCA1 & SCA2, 36 weeks
  Mod SARA change (SD) from Randomization Baseline: −0.1 (1.20)
[4]; SCA1 & SCA2, 48 weeks
  Mod SARA change (SD) from Randomization Baseline: 0.1 (1.44)
[4]; at 6 months
  improvement in the axial SARA score: −0.1 point
[5]; All SCA, n = 63, May-18
  Modified SARA, week 8 StdChg: 0.453
  Modified SARA, week 8 Δ Mean: −0.429
[5]; SCA1 and SCA2, first Stable column, n = 31
  Modified SARA, week 8 StdChg: 0.405
[5]; SCA1 and SCA2, first column headed Stable (−1 < diff < 1), n = 31, Stable 2 in Table 16
  Modified SARA, week 8 Δ Mean: −0.387
[5]; SCA1 and SCA2, n = 33
  Modified SARA, week 8 StdChg: 0.399
[5]; SCA1 and SCA2, n = 33, May-18
  Modified SARA, week 8 Δ Mean: −0.424
[5]; SCA1 and SCA2, second Stable column, n = 14
  Modified SARA, week 8 StdChg: 0.313
[5]; SCA1 and SCA2, second column headed Stable (−1 < diff < 1), n = 14, Stable 1 in Table 16
  Modified SARA, week 8 Δ Mean: −0.286
[5]; stable 2 group, 8 weeks
  change in SARA score (difference BHV-4157 vs placebo): 0.24
[5]; stable group 1, 8 weeks
  change in SARA score (difference BHV-4157 vs placebo): 0.20
[6]
  tolerability profile: favorable
